This passage reports TGI and GI50 results from PubChem BioAssay (NCI).

“And” between values parts separate entries of the source, which are not always exact repeats. Equal values may be shown once.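 Protocol summary: plate cells (96-well), add compound at 5 concentrations, incubate 48 h, interpolate endpoints linearly. GI50 is the concentration that inhibits growth by half. TGI: total growth inhibition.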 A value given as a limit tells only on which side of the number the result lay.

Experiment in all cases: DTP human tumour cell line panel, 48 h
In test [1] the test system is SNB-78 CNS.
Test [2] concerns UACC-62 melanoma.
Test [3] concerns CCRF-CEM leukemia.
The subject of test [4] is LXFL 529 NSCLC.
Test [5] relates to SF-295 CNS.
Test [6] relates to NCI-H460 lung.
Test [7] concerns SN12C renal.
The subject of test [8] is DLD-1 colon.
The subject of test [9] is EKVX NSCLC.
The test system of test [10] is DMS 114 small cell lung.

For orientation: TGI means the concentration at which net growth stops. Regarding `O=[N+]([O-])c1ccc(-c2ccc(/C=N/n3c(-c4ccc(Cl)cc4)n[nH]c3=S)o2)cc1`, the TGI is over 70.3 µM in [1]; over 100 µM in [2]; over 100 µM in test [3]; over 71.1 µM in [4]; over 64 µM in test [5]; over 54.7 µM in [6]. The TGI in [7], in [8], in [9] and in [10] was over 100 µM in each case.

Regarding `Cc1cc(C)nc(NS(=O)(=O)c2ccc(Nc3c4ccccc4nc4c(C(=O)Nc5ccc(S(N)(=O)=O)cc5)cccc34)cc2)n1`, the TGI in test [1], in test [2], in test [3], in test [4], in [5] and in test [6] was over 100 µM each time. Besides, the concentration for total growth inhibition (TGI) was over 100 µM in [7], over 100 µM in test [8], 98.2 µM in test [9] and over 100 µM in [10].

For `O/N=C1/C(=C/c2ccc(F)cc2)CCCC1C(NO)c1ccc(F)cc1` (centres undefined), the TGI in test [1], in test [2], in test [3], in [4], in test [5] and in [6] was over 100 µM throughout. Besides, the TGI in [7] was 43.6 µM; in test [8], over 100 µM; in test [9] it was over 100 µM; in test [10] it was over 100 µM.

As for `CC1=COC(=O)c2ccccc2N1`, the TGI in [1], in test [2], in test [3], in test [4], in test [5] and in [6] was over 100 µM each time. For the same compound, the TGI in test [7], in [8], in test [9] and in test [10] was over 100 µM in each case.

For `CCCCCCC(=O)C/C(CCC(=O)N(Cc1ccccc1)Cc1ccccc1)=N\Nc1ccc([N+](=O)[O-])cc1[N+](=O)[O-]`, the TGI in test [1] was over 100 µM; in test [2], over 100 µM; in [3], 56.1 µM; in test [4] it was over 100 µM; in [5], over 100 µM; in [6], over 100 µM. The TGI in test [7] is over 100 µM; in test [8], over 100 µM; in test [9], over 100 µM; in test [10], 40.6 µM.

With `Cn1ncc2cc3c(Nc4ccc(Cl)cc4)cccc3nc21`, the TGI in [1] is over 100 µM; in [2] it was 32.7 µM; in test [3] it was 92.7 µM; in test [4] it was 42.7 µM; in test [5], 35.3 µM; in [6], 32 µM. Also, the TGI is 70.8 µM in test [7], over 100 µM in test [8], 88 µM in test [9] and 28.9 µM in [10].

With `CC(Cl)(/C=C/Cl)C(Cl)/C=C/C(Cl)(CCl)CBr` (centres undefined), the TGI in [1] came out at 4.95 µM; in test [2] it was 5.2 µM; in test [3], 11.3 µM; in test [4], 2.5 µM; in test [5], 20.2 µM; in test [6], 15.4 µM. The TGI in test [7] is 12.5 µM; in test [8], 12.5 µM; in [9], over 77.3 µM; in test [10] it was 5.32 µM.

As usually defined, the GI50 is the concentration giving 50% growth inhibition. As to `CCOC(=O)CCC(NC(=O)c1ccc(N=Cc2nc3cc(C(F)(F)F)ccc3nc2-c2ccccc2)cc1)C(=O)OCC` (centres undefined), the GI50 is 18.1 µM in test [1]; 61.6 µM in [2]; over 100 µM in [3]; over 100 µM in [4]; 71.9 µM in test [5]; over 100 µM in test [6]. Moreover, the GI50 in [7], in [8] and in test [9] was over 100 µM throughout. Moreover, the TGI in test [1] is 32 µM and 98.8 µM; in [2], 40.7 µM and > 100 µM; in [3], over 100 µM; in test [4] it was 50 µM and > 100 µM; in [5], 31.8 µM and > 100 µM; in test [6] it was 50 µM and > 100 µM. The TGI in test [7] was over 100 µM; in [8], over 100 µM; in test [9] it was 50 µM and > 100 µM; in test [10], over 100 µM.

On to `C/C(=N\N(C)C)c1sc(-n2nc(-c3ccccc3)cc2-c2ccccc2)nc1C`, for which the TGI in [1], in test [2], in test [3], in [4], in test [5] and in [6] was over 100 µM each time. Besides, the total growth inhibition concentration (TGI) in test [7], in test [8], in test [9] and in test [10] was over 100 µM each time.

Regarding `CC(=O)Oc1c(C)n(CCCl)ccc1=O`, the TGI in test [1], in test [2], in test [3], in test [4], in [5] and in test [6] was over 100 µM each time. Moreover, the TGI in test [7], in test [8], in test [9] and in test [10] was over 100 µM in each case.
